“Also recorded” adds a separate entry of the source.
Tests used:
human GLUT2 = biological target: T1, human GLUT2 (Homo sapiens, UniProt P11168); test: Glucose or fructose entrance counter-flow transport in GLUT2 proteoliposomes; assay type: biochemical; conditions: 2 mM compound
T1 construct: Full length DNA was subcloned into pFastBac1 (Life Technologies) vector with a N-terminal hexahistidine tag; hexahistidine (N); made in house; host or cells: Sf21 insect cells (baculovirus, pFastBac1)
T1 sequence (P11168 1-524): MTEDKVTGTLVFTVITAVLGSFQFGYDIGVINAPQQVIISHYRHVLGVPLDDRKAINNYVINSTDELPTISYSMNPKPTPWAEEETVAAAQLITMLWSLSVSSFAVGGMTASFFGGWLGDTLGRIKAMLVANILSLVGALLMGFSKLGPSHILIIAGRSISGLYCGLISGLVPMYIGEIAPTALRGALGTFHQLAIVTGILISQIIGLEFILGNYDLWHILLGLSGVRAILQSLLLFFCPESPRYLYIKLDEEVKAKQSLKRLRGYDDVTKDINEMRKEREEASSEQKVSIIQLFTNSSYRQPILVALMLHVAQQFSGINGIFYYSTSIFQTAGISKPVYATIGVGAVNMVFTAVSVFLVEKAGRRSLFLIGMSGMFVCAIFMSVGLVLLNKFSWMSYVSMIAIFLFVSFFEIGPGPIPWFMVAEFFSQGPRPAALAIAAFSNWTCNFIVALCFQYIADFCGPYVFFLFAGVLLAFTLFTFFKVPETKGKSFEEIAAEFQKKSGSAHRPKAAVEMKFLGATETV
Experimental: (§1) cDNAs of GLUT1, 3, 4 and 5 were purchased from Open Biosystems (GE Healthcare). cDNAs of GLUT2 was a gift from Prof. Graeme Bell at University of Chicago. Full length DNA was subcloned into pFastBac1 (Life Technologies) vector with a N-terminal hexahistidine tag. Bacmids were generated in DH10Bac E. coli cells (Life Technologies). Baculoviruses were produced using Cellfectin II Reagent and amplified in Sf21 insect cells (Life Technologies). Cells were maintained at 26° C., and P1 (10^6 pfu/mL) was collected from infected cells after 72 hours. SF21 cells were propagated in HyClone SFX-Insect media (GE Healthcare), supplemented with 5% fetal bovine serum (Biowest), 4.8 mM glutamine, antibiotics (100 units/mL Penicillin G and 100 μg/mL streptomycin sulfate) and amphotericin B (2.5 μg/mL). […]
(§2) For the entrance counterflow transport in proteoliposomes, the assay was started by the addition of 5 μL proteoliposomes solution (OD600 nm ˜30) to 200 μL, assay solution, containing 10 μM ^14C-radiolabeled glucose (for GLUT1 wild-type or F379H mutant and GLUT2-4) or fructose (for GLUT5 wild-type or H387F mutant and GLUT2) (Moravek Biochemicals) in 100 mM KPi buffer at pH 7.5. After one minute (or different specified time points when the time-dependent counter-flow transport activity was measured), the transport was stopped with ice-chilled quench buffer [0.1 M KPi (pH 5.5) and 0.1 M lithium chloride]. […]

GLUT5H387F = biological target: T2, GLUT5H387F (Homo sapiens, UniProt P22732, H387F); test: Fructose entrance counter-flow transport in GLUT5H387F mutant proteoliposomes; assay type: biochemical; conditions: 2 mM compound
T2 construct: Full length DNA was subcloned into pFastBac1 (Life Technologies) vector with a N-terminal hexahistidine tag; hexahistidine (N); made in house; host or cells: Sf21 insect cells (baculovirus, pFastBac1)
T2 sequence (P22732 1-501 H387F): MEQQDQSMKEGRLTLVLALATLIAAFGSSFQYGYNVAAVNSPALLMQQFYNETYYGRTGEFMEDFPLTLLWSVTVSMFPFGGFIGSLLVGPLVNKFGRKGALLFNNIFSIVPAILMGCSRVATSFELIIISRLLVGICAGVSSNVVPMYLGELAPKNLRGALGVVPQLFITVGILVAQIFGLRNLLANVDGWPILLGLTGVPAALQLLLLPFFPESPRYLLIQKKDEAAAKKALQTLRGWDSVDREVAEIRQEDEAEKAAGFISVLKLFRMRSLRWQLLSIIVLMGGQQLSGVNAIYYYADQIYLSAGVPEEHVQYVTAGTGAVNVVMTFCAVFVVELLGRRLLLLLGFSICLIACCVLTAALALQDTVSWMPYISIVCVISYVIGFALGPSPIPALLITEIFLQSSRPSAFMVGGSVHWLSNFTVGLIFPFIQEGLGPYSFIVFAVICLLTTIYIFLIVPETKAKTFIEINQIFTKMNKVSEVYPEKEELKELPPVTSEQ
Experimental: as §1, §2

In the case of `CS(=O)(=O)c1ccc(Nc2ccc3c(c2)OCO3)c([N+](=O)[O-])c1` [MSNBA, N-[4-(methylsulfonyl)-2-nitrophenyl]-1,3-benzodioxol-5-amine], the “effect on GLUT2 fructose transport” value (human GLUT2; fructose as substrate) was “did not affect; also recorded: did not influence”, the “effect on GLUT2 glucose transport” value (human GLUT2; glucose as substrate) was “did not influence; also recorded: did not affect” and the “activity retained by GLUT5H387F” value (GLUT5H387F) was 93%. The “effect on GLUT5H387F fructose transport” value (GLUT5H387F) was “largely unaffected; also recorded: almost unsusceptible”.
